Key:
ClpP1P2 = ClpP1P2 (Mycobacterium tuberculosis (strain ATCC 25618 / H37Rv), UniProt P9WPC3+P9WPC5); test: in vitro assay to detect presence of AMC directly proportional to the activity of ClpP1P2. GHDDI collaboration.; type: functional
[1] = microbe, parasite or virus in culture; conditions: Mycobacterium tuberculosis, 72 h, read-out: pIC50 (converted)
[2] = microbe, parasite or virus in culture; conditions: Mycobacterium tuberculosis, 96 h, read-out: pIC50 (converted)
Schistosoma mansoni = test: High throughput screening of compounds against Schistosoma mansoni motility; type: functional; parameters: dose or concentration left out as unconfirmed
Plasmodium falciparum = test: Calibr Malaria Delayed Death Assay SOP; type: functional, organism-based; conditions: for IC50: Plasmodium falciparum

Sequence of ClpP1P2 (P9WPC5 whole entry): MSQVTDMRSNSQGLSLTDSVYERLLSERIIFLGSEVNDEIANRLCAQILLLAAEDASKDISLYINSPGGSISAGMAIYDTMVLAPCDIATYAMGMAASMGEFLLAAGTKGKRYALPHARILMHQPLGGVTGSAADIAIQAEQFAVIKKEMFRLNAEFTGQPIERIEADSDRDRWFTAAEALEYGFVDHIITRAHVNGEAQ
Sequence of ClpP1P2 (P9WPC3 whole entry): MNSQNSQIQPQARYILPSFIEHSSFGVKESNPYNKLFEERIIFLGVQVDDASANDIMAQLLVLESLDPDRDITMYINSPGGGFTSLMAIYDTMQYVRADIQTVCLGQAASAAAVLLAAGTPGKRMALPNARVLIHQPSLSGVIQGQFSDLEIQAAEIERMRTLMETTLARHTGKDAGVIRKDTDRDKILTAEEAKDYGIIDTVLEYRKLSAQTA

SMILES	Percent Effect (Schistosoma mansoni)	also measured
Cc1n[nH]c(=O)c2c(NC(=O)CN3CCOC(C)C3)oc(C)c12 (centres undefined)	–	IC50 (ClpP1P2): > 100 µM
COC(=O)CNC(=O)c1cn(-c2ccccn2)c(=O)c2ccccc12	–	IC50 (ClpP1P2): > 100 µM; IC50 [1]: > 50.1 µM; IC50 [2]: > 50.1 µM
CC(C)n1ccc(-c2cc(C(=O)NC3CC3)c3ccccn23)n1	–	IC50 (ClpP1P2): > 100 µM; IC50 [1]: 16.5 µM; IC50 [2]: 14 µM
CCc1cc(=O)[nH]c2nnc(SCC(=O)OC)n12	-72.76%	–
Cc1cnc2c(c1NCc1ccncc1)c(=O)n(C)c(=O)n2C	-90.48%	–
CC1CCN(S(=O)(=O)c2cccn(CC(=O)NC3CCCC3)c2=O)CC1	-45%	–
CCCc1nnsc1C(=O)NCC1CCN(S(C)(=O)=O)CC1	-25.98%	–
COCC(C)(O)CNC(=O)COc1ccccc1OC (centres undefined)	-28.83%	–
O=C(c1ccc(=O)[nH]n1)N1CC(c2nc(Cc3ccccc3)no2)C1	-36.12%	–
O=C(NCC1CCN(C(=O)c2ccoc2)CC1)c1ccccc1Br	-0.2634%	–
O=C(NCCN1CCC(c2cccs2)CC1)c1ccccc1C(F)(F)F	2.003%	–
COc1ccccc1OCC(=O)NCC(O)(c1ccccc1)C1CC1 (centres undefined)	-13.46%	–
COc1ccccc1NC(=O)NCC(O)(c1ccccc1)C1CC1 (centres undefined)	57.61%	–
O=S(=O)(NCC1(O)CCOc2ccccc21)c1cccs1 (centres undefined)	-21.06%	–
Cc1ccc(S(=O)(=O)NC2CNC(=O)C2)cc1C (centres undefined)	-73.52%	–
COC(=O)c1sccc1S(=O)(=O)N1CCC(Oc2ncccc2Cl)CC1	-59.58%	–
CC(=O)N1CCC(Oc2ccc(C#N)cn2)CC1	-36.18%	–
Cc1cnc2n(c1=O)CC(C(=O)NC1CC1)CS2 (centres undefined)	-61.59%	–
Cn1cnnc1S(=O)(=O)C1CCN(S(=O)(=O)c2c(Cl)cccc2Cl)CC1	-2.116%	–
COc1cccc(C(C)Nc2ncnc3c2NC(=O)CN3)c1 (centres undefined)	–	IC50 (ClpP1P2): > 100 µM; IC50 [1]: > 50.1 µM; IC50 [2]: > 50.1 µM
Cc1cc(C)c2cc(CNC3CCCCC3)c3nn(C)c(=O)n3c2c1	–	pIC50 (Plasmodium falciparum): 5.941; IC50 (Plasmodium falciparum): 1.04 µM; IC50 (ClpP1P2): > 100 µM
Cn1cnc(S(=O)(=O)N2CCCC2)c1Cl	-11.59%	–
CCc1nnc2n1CCN(C(=O)c1csc(-c3cnn(C)c3)n1)C2	-4.866%	–
CS(=O)(=O)CCSc1cccc(C#N)c1	-35.13%	–
Cc1nc(C2CCCN(C(=O)c3scnc3C)C2)no1 (centres undefined)	18.51%	–
CCc1nc(CN2CCCN(Cc3cnn(C)c3)CC2)no1	-82.4%	–

SMILES	Percent Effect (Schistosoma mansoni)	also measured
CC(NC(=O)C1=NN(C)C(=O)CC1)c1ccc(F)cc1F (centres undefined)	-36.47%	–
CC(C)COC(C)C(=O)N1CCN(S(C)(=O)=O)CC1 (centres undefined)	-53.15%	–
O=C(c1cc(Cl)c2c(c1)OCO2)N1CCN(c2nccs2)CC1	-51.67%	–
Cc1cccc(C2(C(=O)NCCCn3cccn3)CC2)c1	-39.94%	–
Cc1nn(C)c(N(C)C)c1CNCC(O)c1ccccc1 (centres undefined)	-48.71%	–
Cc1nc(C(C)(C)NC(=O)Nc2ccccc2)no1	-55.91%	–
CCCc1cc(NC2CCc3ncnn3C2)n2ncnc2n1 (centres undefined)	-6.308%	–
CC(C#N)CSc1ccccc1NCC(=O)Nc1ccc(F)cc1 (centres undefined)	55.09%	–
Cc1cnn(CC2CCCN2Cc2coc(-c3cccs3)n2)c1 (centres undefined)	-52.32%	–
COc1ccc(NC(C)C(=O)N2CCN(c3ncccn3)CC2)cn1 (centres undefined)	-56.07%	–
COCC(NC(=O)c1cnn(C)c1)c1cccc(C(F)(F)F)c1 (centres undefined)	-48.05%	–
CCn1nc2c(cc1=O)CN(Cc1nc(N)c3ccccc3n1)CC2	-40.99%	–
CN(CCC(F)(F)F)C(=O)C1CCCN1C(=O)OC(C)(C)C (centres undefined)	-26.39%	–
CCc1ncc2c(n1)CN(Cc1nnc(C)o1)CC2	-12.75%	–
CCc1nnc2n1CC(CNCc1ccncc1)CC2 (centres undefined)	-67.25%	–
COc1ccc(CN(C)C(=O)CCc2c(C)nc(C)[nH]c2=O)cc1OC	-19.42%	–
CC1CCCN(CCNC(=O)c2cncnc2C(C)C)C1 (centres undefined)	-12.57%	–
Cc1ncc(CNC(=O)Nc2cc(C(F)(F)F)c[nH]c2=O)s1	-39.38%	–
Cc1nc(-c2ccsc2)ccc1C(=O)O	-19.43%	–
Cc1nccn1-c1cc(CNC(=O)C(C)(C)C)ccn1	-28.12%	–
CCCOc1cc(C)ccc1NC(=O)NCCC(=O)N(C)C	-17.12%	–
CCCOc1ccc(NC(=O)NCCC(=O)N(C)C)cc1Cl	-22.9%	–
O=C(CCc1nccs1)N1CCCC(N2CCNC2=O)C1 (centres undefined)	-31.05%	–
CN(C)C(=O)C1CCCN1CCCNC(=O)c1ccccc1F (centres undefined)	-45.94%	–
CN(C)C(CNC(=O)c1cccc(-n2cnnn2)c1)c1ccccc1Cl (centres undefined)	53.46%	–
Cc1cc(C)n(CC2CCCN2C(=O)c2ccc3[nH]nnc3c2)n1 (centres undefined)	-6.294%	–

SMILES	Percent Effect (Schistosoma mansoni)	also measured
CC1CN(C)c2ccccc2CN1C(=O)CSc1ccncc1 (centres undefined)	7.617%	–
O[C@@H]1CN(c2cnc3ccccc3n2)CC[C@H]1c1ccc2c(c1)OCO2	–	IC50 (ClpP1P2): > 100 µM; IC50 [1]: 3.18 µM; IC50 [2]: 2.21 µM
Cc1cc2nc(C(C)C)cc(N(C)CC3CCN(C(C)C)C3)n2n1 (centres undefined)	–	IC50 (ClpP1P2): > 100 µM; IC50 [1]: > 50.1 µM; IC50 [2]: > 50.1 µM
OCC1(CC2CCCCO2)CCN(c2cnc3ccccc3n2)CC1 (centres undefined)	–	IC50 (ClpP1P2): > 100 µM; IC50 [1]: 13.4 µM; IC50 [2]: 10.7 µM
COCCCC1(CO)CCCN(CCc2ccccc2)C1 (centres undefined)	-47.32%	–
Cc1noc(C)c1CCC(=O)N1CCN(CCn2cncn2)CC1	-8.408%	–
Cc1cncc(C(=O)N2CCCC(C(=O)CCc3ccccc3)C2)c1 (centres undefined)	-9.118%	–
Cc1cc(C[C@@H]2COC[C@@H]2NC(=O)Cn2c(=O)oc3ccccc32)on1	-26.12%	–
O=C(CCCc1ccc(F)cc1)N1C[C@@H](CN2CCOCC2)[C@@H](CO)C1	-22.43%	–
CN(C)C(=O)N1C[C@@H]2CC[C@H](C1)N(Cc1ccc3nsnc3c1)C2	-20.59%	–
O=C(c1cccnc1)N1C[C@@H]2CC[C@H](C1)N(Cc1cc(F)ccc1F)C2	-34.82%	–
CC[C@@]1(O)CCN(C(=O)c2ccc(-c3cccc(F)c3)cc2)C[C@H]1O	16.9%	–
CCOCCC(=O)N1CCCC(c2ncc[nH]2)C1 (centres undefined)	-61.02%	–
CCn1c(N)nc2cc(C(=O)NCCc3sccc3C)cnc21	-77.79%	–
CC(=O)NCC1CCN(CC2CCOc3ccccc3C2)CC1 (centres undefined)	-62.7%	–
CCc1nnc(CN(C)c2nc(C3CCCC3)nc3c2cnn3C)o1	1.111%	–
CCC(=O)N1CCC2(CC1)c1nc[nH]c1CCN2S(C)(=O)=O	-32.51%	–
CCSCC(C)NCc1nncn1C1CCCCC1 (centres undefined)	1.244%	–
Cn1ncc2c(NCCOc3ccc(F)cc3)nc(C3CCCC3)nc21	106.6%	–
Fc1ccccc1-c1noc2c1CN(CC1CC1)CC2	-95.25%	–
CN(CCCc1cnn(C)c1)C(=O)C1COc2ccccc2C1 (centres undefined)	-70.43%	–
Cc1cccnc1CN1CCC(c2nnc(Cn3cccn3)n2C)CC1	-11.55%	–
CCn1c(CN(C)C)nnc1C1CCN(c2ccnc(C)c2)CC1	3.943%	–
Cc1ccsc1CN(CCN(C)C)Cc1ccccn1	-19.12%	–
COC(=O)c1cc(OCC2CCC2)cc(C(=O)N[C@H]2CC[C@H](O)CC2)c1	-76.62%	–
COCc1cc(NCc2cc(F)ccc2F)n2nccc2n1	-61.56%	–

SMILES	Percent Effect (Schistosoma mansoni)	also measured
C[C@@H]1CN(C2(C(=O)N3CCOCC3)Cc3ccccc3C2)C[C@H](C)O1	12.59%	–
COc1ccc(OC)c(-c2nc(CN(C)Cc3nncn3C)c(C)o2)c1	-42.05%	–
CNc1nc(C(=O)N2CCCC(c3nccn3CC3CCC3)C2)cs1 (centres undefined)	-15.23%	–
CCCNCC1(O)CCCN(Cc2cccc(C)c2)C1=O (centres undefined)	-43.91%	–
Cc1cc(C(=O)N2CCC(c3nccn3CCCN(C)C)CC2)no1	-19.46%	–
CC(C)(C)c1ccn(C2(C(=O)O)CCN(c3nccc(N)n3)CC2)n1	14.42%	–
COC(=O)c1cc(OCC2CCC2)cc(C(=O)N[C@@H]2CNCC[C@H]2O)c1	-27.72%	–
COc1ccc(-n2nnc(C(=O)NC(C)C)c2C2CC2)cc1	0.8394%	–
CCC(=O)N1CCC(c2nnc(Cn3cncn3)n2C2CC2)CC1	-42.58%	–
O=C(NC[C@@H]1CCCN1)c1cc(COc2cccc(C(F)(F)F)c2)[nH]n1	73.28%	–
CCC(O)CNC(=O)c1coc(COc2ccc3sc(C)nc3c2)n1 (centres undefined)	-24.85%	–
CC(C)OCc1ccc(CNc2cncc(-n3cccn3)n2)cc1	–	IC50 (ClpP1P2): > 100 µM; IC50 [1]: > 50.1 µM; IC50 [2]: 17 µM
COCCN1CCC(CNC(=O)C2(c3ccc(Br)cc3)CCCC2)C1 (centres undefined)	–	pIC50 (Plasmodium falciparum): 6.366; IC50 (Plasmodium falciparum): 0.541 µM; IC50 (ClpP1P2): > 100 µM
CC(Cc1ccco1)NC(=O)Nc1ccc(N(C)C)nc1 (centres undefined)	–	IC50 (ClpP1P2): > 100 µM
CC(Cc1ccco1)NC(=O)Nc1ccc(N2CCCC2)nc1 (centres undefined)	–	IC50 (ClpP1P2): > 100 µM
Cc1nc(CN(C)C2CCN(Cc3nc4ccccc4n3C)C2)no1 (centres undefined)	–	IC50 (ClpP1P2): > 100 µM
CC(Cn1cccn1)NC(=O)Cc1csc(C(C)C)n1 (centres undefined)	–	IC50 (ClpP1P2): > 100 µM
COc1ccc(CNC(=O)Nc2cccnc2N2CCCC2)cc1OC	–	IC50 (ClpP1P2): > 100 µM
CCNc1cc2c(nn1)CCN(C(=O)c1ccoc1)C2	–	IC50 (ClpP1P2): > 100 µM
CS(=O)(=O)N1CCCCCC1C1CCN(c2ncccc2C#N)CC1 (centres undefined)	–	IC50 (ClpP1P2): > 100 µM
Cn1cc(-c2nc(CNCCn3cccn3)cs2)cn1	–	IC50 (ClpP1P2): > 100 µM
Cc1n[nH]c(=O)c2c(NC(=O)CN3CCCC(C(F)(F)F)C3)oc(C)c12 (centres undefined)	–	IC50 (ClpP1P2): > 100 µM
COC(=O)COc1cccc(NS(=O)(=O)c2cc(C(=O)O)cs2)c1	–	IC50 (ClpP1P2): > 100 µM
COc1ccc(S(N)(=O)=O)cc1C(=O)N(C)Cc1cc(C)on1	–	IC50 (ClpP1P2): > 100 µM
Cc1n[nH]c(=O)c2c(NC(=O)CN3CCC(O)CC3)oc(C)c12	–	IC50 (ClpP1P2): > 100 µM
CCn1cncc1CN1CCN(CC2(c3ccc(C)cc3)CC2)CC1.Cl	–	pIC50 (Plasmodium falciparum): 6; IC50 (Plasmodium falciparum): 1.11 µM; IC50 (ClpP1P2): > 100 µM

Source: ChEMBL document CHEMBL3988442, “University of Dundee, Small-Polar-MMV Screening Library” (2021)
